Test results taken from patent US20240252688A1, “COMPOSITIONS AND METHODS FOR ENHANCED PROTEIN PRODUCTION” (HDT Bio Corp., priority 2021, published 2024).

Assays:
IFIT2 [1] = test: Single-point screen: IFIT2 activation (Lucia luciferase, QUANTI-Luc); type: cell-based, human; conditions: A549-Dual cells, compound 50 μM pre-treatment, NP-1+mRNA 20 ng/well + IFN
From the text: (§1) The cells produce secreted embryonic alkaline phosphatase (SEAP), under the control of the interferon beta […] minimal promoter fused to five NF-κB binding sites. The cells also secrete lucia luciferase under the control of IFIT2 promoter.

NF-κB [2] = test: Single-point screen: NFκB activation (SEAP reporter); type: cell-based, human; conditions: A549-Dual cells, compound 50 μM pre-treatment, NP-1+mRNA 20 ng/well + IFN
From the text: as §1

NF-κB [3] = test: NP-35 co-transfection: NF-κB induction; type: cell-based, human; conditions: highest concentrations of NP-35-formulated compound
Protocol: The objective of this experiment was to evaluate co-transfection of LNP (e.g., NP-35) with lead small molecule inhibitor compounds for enhancing protein expression from repRNA in transfected cells. […] LNP was formulated according to NP-35 formulation. Additionally, nanoparticles were also formulated according to […] formulation. About 5×10^4 A549-Dual cells were incubated at 37° C. with 5% CO2 for 18-24 hours with the compound at a concentration ranging from 1 μg to 0.06 ng. The cells were then treated with repRNA-nLuc, IFN, and nanoparticles (NP-35 or NP-30). The treated cells were incubated at 37° C. with 5% CO2 for 18-24 hours. nLuc expression was measured by Nano-GLO assay and plotted against the concentration of repRNA-nLuc that was used for the transfection (FIG. 14A-14H).

IFIT2 [4] = test: NP-35 co-transfection: IFIT2 induction; type: cell-based, human; conditions: NP-35-formulated compound, A549-Dual cells
A549-Dual cells [5] = test: Single-point screen: cell viability by CellTiter-Glo; conditions: A549-Dual cells incubated overnight with compound at 50 μM, then NP-1+mRNA 20 ng/well + IFN 1:50
Protocol: Finally, cell lysates were assayed with the CellTiter-GLO® assay (Promega) to obtain a luminescent-based measure of cell viability. In summary, the readouts from the high throughput screen included the primary measure of nLuc protein expression and three secondary readouts: IFIT, NF-κB and cell viability.
For each assay, A549-dual cells were plated at a seeding density of about 5×10^4 cells per well. Cells were incubated overnight with compounds at 50 microMolar (μM) in 1% v/v dimethyl sulfoxide (DMSO). For control wells, 1% DMSO was added to each well. After about 24 hours, the culture medium was removed, and cells were transfected with NP-1+mRNA at 20 ng/mRNA/well in Opti-MEM® media (Thermofisher). Interferon (IFN) was diluted to 1:50 in all test wells except for the RNA only wells and media only wells. Anti-IFN was diluted 1:1000 in “RNA+anti-IFN+IFN” wells. Cells were incubated for 4 hours, and culture medium was added to the Opti-MEM® medium. After 24 hours, assay supernatants were collected and analyzed for nLuc expression, IFIT2 (qLuc), and NFκB (qBLUE-SEAP™, InvivoGen) activation. Cells were then lysed, and cell viability was determined by CellTiter-Glo® (Promega) assay.

A549-Dual cells [6] = test: Single-point kinase inhibitor library screen: nLuc expression from NP-1+mRNA-nLuc in IFN-treated cells; type: cell-based, human; conditions: compound 50 μM pre-treatment, NP-1+mRNA 20 ng/well + IFN
Protocol: as §1
To measure protein expression from mRNA, which is the primary readout for compound down selection, mRNA encoding a secreted version of nanoluciferase (mRNA-nLuc) was used. Protein expression was measured via a luminometer using standard techniques.
As additional criterion, expression in compound treated cells was compared relative to mRNA-transfected cells without IFN (“RNA only”) (data not shown).
A library of small molecule kinase inhibitors was screened for the ability to enhance expression of mRNA-encoded genes when co-delivered with mRNA.

BALB/c mice = test: Systemic (IV) compounds with IM NP-1/repRNA-ZIKV-117: serum ZIKV-117; type: in vivo; conditions: for ZIKV-117 expression compared to no compound group: compound IV (Dinaciclib 5 mg/kg, CDKI-73 5 mg/kg, AZD4573 1 mg/kg), 10 μg repRNA-ZIKV-117 IM, days 3-28
Protocol: The purpose of the experiment was to evaluate the effect of systemically administered compound inhibitors on protein expression.
A molar ratio of nitrogen to phosphate (N:P) for each of the formulation was adjusted. […] Each compound was formulated as an aqueous solution or suspension following instructions from the vendor (MedChemExpress). At the same time as systemic compound treatment, mice were given 10 μg repRNA-encoding ZIKV-117 mAb complexed to nanoparticles by IM injection in the hind leg. Mice were bled on days 3, 5, 7, 10, 14, 21 and 28 after administration of NP-1/repRNA-ZIKV-117, and assayed for ZIKV-117 levels in serum. The positive control group received an IFNAR-1 blocking monoclonal antibody (MAR1-5A3) by intraperitoneal (IP) injection one day before administration of NP-1/repRNA-ZIKV-117.

[7] = target: mouse IFN alpha/beta receptor (IFNAR-1) (mouse) (UniProt P33896); test: cell-based or functional assay
Chain of mouse IFN alpha/beta receptor (IFNAR-1) (mouse) (P33896 27-590 limits assumed): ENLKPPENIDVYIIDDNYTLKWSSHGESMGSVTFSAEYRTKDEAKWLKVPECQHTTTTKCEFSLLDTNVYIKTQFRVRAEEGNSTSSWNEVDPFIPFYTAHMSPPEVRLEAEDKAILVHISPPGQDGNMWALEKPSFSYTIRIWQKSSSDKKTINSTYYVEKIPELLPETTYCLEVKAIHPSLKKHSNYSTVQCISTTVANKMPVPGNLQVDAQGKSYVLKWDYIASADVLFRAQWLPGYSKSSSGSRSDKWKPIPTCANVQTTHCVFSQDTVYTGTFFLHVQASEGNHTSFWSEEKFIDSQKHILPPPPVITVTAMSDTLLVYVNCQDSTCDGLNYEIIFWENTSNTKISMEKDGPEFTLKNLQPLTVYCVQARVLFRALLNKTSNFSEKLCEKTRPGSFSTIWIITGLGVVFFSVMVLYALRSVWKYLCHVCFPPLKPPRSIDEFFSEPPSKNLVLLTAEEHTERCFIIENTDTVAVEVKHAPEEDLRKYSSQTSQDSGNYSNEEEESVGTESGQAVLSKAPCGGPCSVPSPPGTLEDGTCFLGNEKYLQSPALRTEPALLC

C57BL/6 mice = test: IM injection of repRNA-SEAP with nanoparticle-encapsulated inhibitors: serum SEAP; type: in vivo; conditions: 500 μM dose level versus equivalent no compound group, days 3-28
Protocol: The ten candidate compounds were formulated in NP-1 nanoparticle emulsion to evaluate their effect on expression when co-delivered with repRNA. All compounds were readily soluble in non-polar solvents which enabled dissolution in the lipophilic squalene oil phase of NP-1. A probe sonication process was adapted to formulate candidate compounds in 1 mL batches of nanoparticle emulsions. The z-average nanoparticle diameter was measured by dynamic light scattering (DLS) and ranged from 110-130 nm. Activity of compounds formulated in nanoparticle emulsions was tested both in vitro (FIG. 11A). Cells were transfected with 20 ng repRNA per well in the presence of IFN and delivered with empty nanoparticles (no inhibitor) or nanoparticle encapsulating a compound inhibitor delivered at a calculated 0.5 μM per well. […] C57BL/6 female mice (6-8 weeks old; n=3/group) were injected by IM route with 10 μg repRNA-SEAP complexed with empty nanoparticles (no compound) or nanoparticles encapsulating a small molecule inhibitor at 500 μM. The positive control group received an IFNAR-1 blocking monoclonal antibody (MAR1-5A3) by intraperitoneal (IP) injection one day before IM injection of NP-1/repRNA-SEAP. […]

A549-Dual cells [8] = test: NP-35 co-encapsulating repRNA-nLuc and Dinaciclib: nLuc expression; type: cell-based, human; conditions: 0.5 mM Dinaciclib co-encapsulated, A549-Dual cells + IFN
Protocol: Briefly, A549-Dual cells were incubated at 37° C. with 5% CO2 for 18-24 hours. […] About 5×10^4 cells were transfected with the formulation at different concentrations in the presence of IFN. The transfected cells were incubated at 37° C. with 5% CO2 for 18-24 hours. nLuc expression was measured by Nano-GLO assay and plotted against the concentration of repRNA-nLuc that was used for the transfection (FIG. 15).

With COc1ccc(F)cc1-c1cc(NC(=O)[C@@H]2CCCNC2)ncc1Cl [CDK-IN-2, (3R)-N-[5-chloro-4-(5-fluoro-2-methoxyphenyl)pyridin-2-yl]piperidine-3-carboxamide] the fold induction at 50 µM (IFIT2 [1]; Homo sapiens, 24 h, read-out: fold IFIT over IFN) was 1.06, the fold induction at 50 µM (NF-κB [2]; Homo sapiens, 24 h, read-out: fold NFkB over IFN) was 0.28 and the “IFN-beta mediated NF-κB induction relative to cells transfected with NP-35” value (NF-κB [3]) was “slight increase in IFN-beta mediated NF-κB induction”. The IFIT2 induction (IFIT2 [4]) was “significant dose-dependent reduction in IFIT2 induction”, the “% viability” value (A549-Dual cells [5]) was 23% and the fold induction at 50 µM (A549-Dual cells [6]; Homo sapiens, read-out: fold nLuc over RNA + IFN) was 157.
With CNc1nc(C)c(-c2nc(Nc3cccc(S(N)(=O)=O)c3)ncc2F)s1 [CDKI-73, 3-[[5-fluoro-4-[4-methyl-2-(methylamino)-1,3-thiazol-5-yl]pyrimidin-2-yl]amino]benzenesulfonamide] the “IFN-beta mediated NF-κB induction relative to cells transfected with NP-35” value (NF-κB [3]) was “slight increase in IFN-beta mediated NF-κB induction” and the “ZIKV-117 expression compared to no compound group” value (BALB/c mice) was “higher total expression than no compound group but not statistically significant”.
In the case of CC(C)n1cnc2c(NCc3nc4c(F)c(F)ccc4[nH]3)nc(N3CCCC[C@H]3CCO)nc21 [CDK12-IN-3, 2-[(2S)-1-[6-[(4,5-difluoro-1H-benzimidazol-2-yl)methylamino]-9-propan-2-ylpurin-2-yl]piperidin-2-yl]ethanol], the IFIT2 induction (IFIT2 [4]) is reported as “significant dose-dependent reduction in IFIT2 induction”.
“IFNAR-1 blocking monoclonal antibody (MAR1-5A3)” gave an SEAP expression in serum of C57BL/6 mice on day seven after IM injection of NP-1/repRNA-SEAP [7] of 10 fold.
CC(=O)N[C@@H]1CCC[C@H](C(=O)Nc2cc(-c3cnn4c3CC(C)(C)C4)c(Cl)cn2)C1 [AZD4573, (1S,3R)-3-acetamido-N-[5-chloro-4-(5,5-dimethyl-4,6-dihydropyrrolo[1,2-b]pyrazol-3-yl)pyridin-2-yl]cyclohexane-1-carboxamide] was tested, and the “total protein (SEAP) expression, AUC of expression kinetics” value (C57BL/6 mice) was “significant increase in total protein expression”, the “ZIKV-117 expression compared to no compound group” value (BALB/c mice) was “higher total expression than no compound group but not statistically significant” and the IFIT2 induction (IFIT2 [4]) was “significant dose-dependent reduction in IFIT2 induction”.
In the case of CCc1cnn2c(NCc3ccc[n+]([O-])c3)cc(N3CCCC[C@H]3CCO)nc12 [Dinaciclib, 2-[(2S)-1-[3-ethyl-7-[(1-oxidopyridin-1-ium-3-yl)methylamino]pyrazolo[1,5-a]pyrimidin-5-yl]piperidin-2-yl]ethanol], the “nLuc expression relative to NP-35/repRNA-nLuc without Dinaciclib” value (A549-Dual cells [8]) is reported as “significantly enhanced nLuc expression”, the “ZIKV-117 expression compared to positive control (anti-IFNAR-1)” value (BALB/c mice; Dinaciclib 5 mg/kg IV) is reported as “more rapid and higher magnitude expression” and the “ZIKV-117 expression compared to no compound group” value (BALB/c mice) is reported as “significantly enhanced ZIKV-117 expression”. The IFIT2 induction (IFIT2 [4]) was “significant dose-dependent reduction in IFIT2 induction”.
For Nc1nc(N[C@H]2C[C@@H]3CC[C@H]2C3)sc1C(=O)c1ccccc1[N+](=O)[O-] [MC180295, [4-amino-2-[[(1S,2S,4R)-2-bicyclo[2.2.1]heptanyl]amino]-1,3-thiazol-5-yl]-(2-nitrophenyl)methanone], the “IFN-beta mediated NF-κB induction relative to cells transfected with NP-35” value (NF-κB [3]) was “slight increase in IFN-beta mediated NF-κB induction”.
For CC(C)c1c2cc(-c3ccnc(NC4CCC(NC5CCOCC5)CC4)n3)ccc2nn1C (centres unmarked) [LY2857785, 4-N-[4-(2-methyl-3-propan-2-ylindazol-5-yl)pyrimidin-2-yl]-1-N-(oxan-4-yl)cyclohexane-1,4-diamine], the “IFN-beta mediated NF-κB induction relative to cells transfected with NP-35” value (NF-κB [3]) was “slight increase in IFN-beta mediated NF-κB induction”.
For Cn1nc(C(C)(C)C)cc1NC(=O)Nc1ccc(Oc2ccncc2)cc1 [MAPK13-IN-1, 1-(5-tert-buty-2-methylpyrazol-3-yl)-3-(4-pyridin-4-yloxyphenyl)urea], the “fold IFIT over IFN” value (IFIT2 [1]) was 1.93 fold, the “fold NFkB over IFN” value (NF-κB [2]) was 0.66 fold and the “% viability” value (A549-Dual cells [5]) was 59%. The “fold nLuc over RNA + IFN” value (A549-Dual cells [6]) was 207.89 fold.
